The target of one test is T1, CCK Receptor (Pancreas) (Rattus norvegicus, UniProt P30551).
T1 construct: The whole pancreas was dissected free of fat tissue and was homogenized; from tissue; host or cells: rat whole pancreas homogenate/membranes
T1 sequence (P30551 1-444): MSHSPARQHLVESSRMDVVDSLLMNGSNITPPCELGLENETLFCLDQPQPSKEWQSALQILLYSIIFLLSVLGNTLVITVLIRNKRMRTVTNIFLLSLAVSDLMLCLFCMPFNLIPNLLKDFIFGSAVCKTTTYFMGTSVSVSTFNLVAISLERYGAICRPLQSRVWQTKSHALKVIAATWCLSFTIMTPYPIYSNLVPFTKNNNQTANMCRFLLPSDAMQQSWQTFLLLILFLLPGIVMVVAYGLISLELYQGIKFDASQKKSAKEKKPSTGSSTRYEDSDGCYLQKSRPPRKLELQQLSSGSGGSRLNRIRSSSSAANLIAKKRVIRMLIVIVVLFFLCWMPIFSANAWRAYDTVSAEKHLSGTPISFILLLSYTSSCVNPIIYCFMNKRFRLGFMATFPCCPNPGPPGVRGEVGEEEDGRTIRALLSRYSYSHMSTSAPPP
The test is described as follows: CCK Receptor Binding (Pancreas): inhibition of 125I-CCK-8 binding to rat pancreas membranes. Further details: species or system rat (male Sprague-Dawley). The conditions noted are these: 50 pM 125I-CCK-8, 25° C., 2 hours, pH 6.5. Here is the method:
1. CCK Receptor Binding (Pancreas)
CCK-8 sulphated was radiolabelled with ^125 I-Bolton Hunter reagent (2000 Ci/mmole). Receptor binding was performed according to Chang and Lotti (Proc. Natl. Acad. Sci. 83, 4923-4926, 1986) with minor modifications.
Male Sprague-Dawley rats (150-200 g) were sacrificed by decapitation. The whole pancreas was dissected free of fat tissue and was homogenized in 25 volumes of ice-cold 10 mM N-2-hydroxyethyl-piperazine-N'-2-ethane sulphonic acid (HEPES) buffer with 0.1% soya bean trypsin inhibitor (pH 7.4 at 25° C.) with a Kinematica Polytron. The homogenates were centrifuged at 47,800 g for 10 min. Pellets were resuspended in 10 volumes of binding assay buffer (20mM (HEPES)), 1 mM ethylene glycol-bis-(β-aminoethylether-N,N'-tetraacetic acid) (EGTA), 5 mM MgCl2, 150 mM NaCl, bacitracin 0.25 mg/ml, soya bean trypsin inhibitor 0.1 mg/ml, and bovine serum albumin 2 mg/ml pH 6.5 at 25° C.) using a Teflon (trademark) homogenizer, 15 strokes at 500 rpm. The homogenate was further diluted in binding assay buffer to give a final concentration of 0.5 mg original wet weight/1 ml buffer. […] The radioactivity on the filters was counted with a LKB gamma counter. […]

A further test concerns the target T2, CCK Receptor (Brain) (Cavia porcellus, UniProt H0VZC5).
T2 construct: the cortex was removed and homogenized in 25 mL ice-cold 0.32 M sucrose; from tissue; host or cells: guinea pig cerebral cortex P2 membranes
T2 sequence (H0VZC5 1-426): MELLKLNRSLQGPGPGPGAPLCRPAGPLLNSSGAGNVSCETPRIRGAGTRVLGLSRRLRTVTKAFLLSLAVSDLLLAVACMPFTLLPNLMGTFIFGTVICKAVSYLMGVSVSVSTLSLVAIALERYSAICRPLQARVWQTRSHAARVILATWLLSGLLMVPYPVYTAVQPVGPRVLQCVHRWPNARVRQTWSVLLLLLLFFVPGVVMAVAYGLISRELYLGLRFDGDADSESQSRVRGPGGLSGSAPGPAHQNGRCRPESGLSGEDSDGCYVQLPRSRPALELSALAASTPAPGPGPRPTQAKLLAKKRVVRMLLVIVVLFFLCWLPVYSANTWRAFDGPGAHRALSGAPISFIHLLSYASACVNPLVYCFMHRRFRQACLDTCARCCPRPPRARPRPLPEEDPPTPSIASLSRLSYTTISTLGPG
As to the kind of experiment: CCK Receptor Binding (Brain): inhibition of 125I-CCK-8 binding to guinea pig cortex membranes. Also on record: species or system guinea pig (male Hartley). The conditions noted are these: 50 pM 125I-CCK-8, 25° C., 2 hours, pH 6.5. Here is the method:
2. CCK Receptor Binding (Brain)
CCK-8 sulphated was radiolabelled and the binding was performed according to the description for the pancreas method with minor modifications.
Male Hartley guinea pigs (300-500 g) were sacrificed by decapitation and the cortex was removed and homogenized in 25 mL ice-cold 0.32 M sucrose. The homogenates were centrifuged at 1000 g for 10 minutes and the resulting supernatant was recentrifuged at 20,000 g for 20 minutes. The P2 pellet was resuspended in binding assay buffer (20 mM HEPES, 5 mM MgCl2, 0.25 mg/ml bacitracin, 1 mM EGTA pH 6.5 at 25° C.), using a Teflon (trademark) homogenizer (5 strokes at 500 rpm) to give a final concentration of 10 mg original wet weight /1.2 ml buffer. For the binding assay, 50 μl of buffer (for total binding) or unlabelled CCK-8 sulphated to give a final concentration of 1 μM (for nonspecific binding) or the compounds of Formula I (for determination of inhibition of ^125 I-CCK-8 binding) and 50 μl of 500 pM ^125 I-CCK-8 (i.e. final concentration of 50 pM) were added to 400 μl of the membrane suspensions in microfuge tubes. All assays were run in duplicate. […] The radioactivity on the filters was counted with a LKB gamma counter. […]

For the molecule `CN1C(=O)C(NC(=O)Nc2cccc(-c3noc(=O)[nH]3)c2)N=C(C2CCC2)c2ccccc21` (racemic) [Example 2, N-[3(R,S)-5-Cyclobutyl-2,3-dihydro-1-methyl-2-oxo-1H-1,4-benzodiazepin-3-yl]N'-[3-(5-oxo-4H-1,2,4-oxadiazolin-3-yl)phenyl]urea], the results for the IC50 at CCK Receptor (Pancreas) and at CCK Receptor (Brain) were 110 nM and 5.98 nM, respectively.

In the case of `CN1C(=O)[C@H](NC(=O)Nc2cccc(-c3noc(=O)[nH]3)c2)N=C(C2CCCCC2)c2ccccc21` [Example 1, N-[3(R)-5-Cyclohexyl-2,3-dihydro-1-methyl-2-oxo-1H-1,4-benzodiazepin-3-yl]N'-[3-(5-oxo-4H-1,2,4-oxadiazolin,3-yl)phenyl]urea], the figures for the IC50 on CCK Receptor (Pancreas) and at CCK Receptor (Brain) were 500 nM and 0.123 nM, respectively.

By IC50 is commonly meant the concentration at which inhibition is half-maximal. A lower IC50 goes with higher potency.

The record behind these values is patent US5597915A, “Benzodiazepine derivatives, compositions containing them and their use in therapy” (Merck Sharp & Dohme Ltd., priority 1992, dated 1997).
